In PubChem BioAssay (NCI) one finds TGI data, which are given here for eight compounds.

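Results reflect a 48-hour exposure of cells in 96-well plates to compound at five concentrations. Definition used: TGI = concentration required for complete inhibition of growth.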

Some test systems named below: 786-0 renal; OVCAR-8 ovarian; SK-OV-3 ovarian; NCI-H522 lung; NCI-H460 lung; CAKI-1 renal; BT-549 breast; SR leukemia; A498 renal; UACC-257 melanoma; SK-MEL-28 melanoma; HT29 colon; DU-145 prostate; MDA-MB-435; NCI-H226 lung; MDA-MB-231 breast; SN12C renal; HCT-15 colon; ACHN renal; T-47D breast.
Assay in all cases: growth of human tumour cells (NCI), 48 h

For `C/C(=N\Nc1nc2ccccc2n1C)c1ccc2ccccc2n1`, the TGI was 11.5 µM with 786-0 renal; above 100 µM in the test on OVCAR-8 ovarian; above 100 µM in the test on SK-OV-3 ovarian; 19.6 µM in the test on NCI-H522 lung; 32.1 µM with NCI-H460 lung; 4.51 µM in the test with CAKI-1 renal. In addition, the TGI in the test with BT-549 breast is above 59.6 µM; in the test with SR leukemia, 3.73 µM; with A498 renal it was 15.6 µM; in the test with UACC-257 melanoma it was above 47 µM; in the test on SK-MEL-28 melanoma, 37.3 µM; in the test on HT29 colon, 18.3 µM. Besides, the TGI is 14.5 µM in the test on DU-145 prostate; 42.7 µM in the test on MDA-MB-435; 6.83 µM with NCI-H226 lung; 28.8 µM in the test with MDA-MB-231 breast; 16.2 µM in the test on SN12C renal; above 75.7 µM in the test on HCT-15 colon. In the test on ACHN renal, this compound had a TGI above 54.5 µM.

Consider `O=C(/C=C/c1ccc(Cl)cc1)c1ccc(Cl)s1`, for which the TGI in the test on 786-0 renal is 90.9 µM; in the test with OVCAR-8 ovarian, above 100 µM; in the test on SK-OV-3 ovarian, above 100 µM; in the test with NCI-H522 lung it was above 100 µM; in the test with NCI-H460 lung it was above 100 µM; with BT-549 breast it was 80.7 µM. The TGI in the test on SR leukemia, with A498 renal, with UACC-257 melanoma, in the test on SK-MEL-28 melanoma, in the test with HT29 colon and in the test with DU-145 prostate was above 100 µM in each case. Further, the TGI in the test on T-47D breast, with MDA-MB-231 breast, in the test on SN12C renal, in the test on HCT-15 colon and in the test on ACHN renal was above 100 µM throughout.

As to `CC(=O)c1sc2c(c1O)c(=O)n(-c1ccccc1)c(=S)n2-c1ccccc1`, the TGI in the test on 786-0 renal, in the test with OVCAR-8 ovarian, with NCI-H522 lung, in the test with NCI-H460 lung, in the test on BT-549 breast and in the test on UACC-257 melanoma was above 100 µM throughout. The TGI in the test with SK-MEL-28 melanoma, in the test on HT29 colon, in the test with DU-145 prostate, in the test on T-47D breast, in the test with MDA-MB-435 and in the test with NCI-H226 lung was above 100 µM each time. Besides, the TGI with MDA-MB-231 breast, in the test with SN12C renal and in the test with HCT-15 colon was above 100 µM in each case.

`Cc1ccc(C=C(C(=O)O)C(=O)O)o1`: the TGI with 786-0 renal, with OVCAR-8 ovarian, in the test with SK-OV-3 ovarian, with NCI-H522 lung, in the test on NCI-H460 lung and with CAKI-1 renal was above 100 µM each time. In addition, the TGI in the test with BT-549 breast, in the test on SR leukemia, in the test on A498 renal, in the test on UACC-257 melanoma, in the test on SK-MEL-28 melanoma and in the test with HT29 colon was above 100 µM each time. Besides, the TGI in the test with DU-145 prostate, in the test on MDA-MB-435, with NCI-H226 lung, in the test on MDA-MB-231 breast, in the test on SN12C renal and in the test with HCT-15 colon was above 100 µM throughout. This compound returned a TGI in the test with ACHN renal above 100 µM.

In the case of `CCCCOc1ccc(S(=O)(=O)/N=C(\N)Nc2ccc(Cl)cc2)cc1`, the TGI worked out at 30.9 µM in the test on 786-0 renal; 29.9 µM in the test on OVCAR-8 ovarian; 35 µM with SK-OV-3 ovarian; 23 µM in the test on NCI-H522 lung; 31.5 µM with NCI-H460 lung; 32.5 µM in the test on BT-549 breast. In addition, the TGI in the test with SR leukemia amounted to 28.7 µM; with A498 renal it was 24.6 µM; in the test on UACC-257 melanoma, 27.1 µM; in the test with SK-MEL-28 melanoma, 32 µM; with HT29 colon, 35.2 µM; in the test with DU-145 prostate, 34.3 µM. In addition, the TGI stood at 29.1 µM with T-47D breast; 44.4 µM with NCI-H226 lung; 29.7 µM with MDA-MB-231 breast; 30.1 µM with SN12C renal; 27.6 µM in the test with HCT-15 colon; 27.7 µM in the test on ACHN renal.

Consider `CC1=C2CC(C)(C)CC(=O)C2(C)CCC1=O` (stereo unspecified), for which the TGI with 786-0 renal, in the test on OVCAR-8 ovarian, with SK-OV-3 ovarian, with NCI-H522 lung, in the test with NCI-H460 lung and in the test on CAKI-1 renal was above 100 µM throughout. Besides, the TGI in the test with BT-549 breast, in the test on SR leukemia, in the test on UACC-257 melanoma, with SK-MEL-28 melanoma, in the test on HT29 colon and in the test on DU-145 prostate was above 100 µM throughout. Also, the TGI in the test with T-47D breast, in the test on NCI-H226 lung, in the test with MDA-MB-231 breast, in the test on SN12C renal, in the test with HCT-15 colon and in the test with ACHN renal was above 100 µM throughout.

For `CCOC(=O)C(C)(Cc1ccc(O)cn1)NC(=O)c1ccccc1` (stereo unspecified), the TGI in the test with 786-0 renal, in the test on OVCAR-8 ovarian, in the test with SK-OV-3 ovarian, in the test on NCI-H522 lung, in the test on NCI-H460 lung and with CAKI-1 renal was above 100 µM each time. Besides, the TGI with BT-549 breast, in the test on SR leukemia, in the test on UACC-257 melanoma, in the test with SK-MEL-28 melanoma, in the test on HT29 colon and in the test with DU-145 prostate was above 100 µM in each case. Also, the TGI with MDA-MB-435, in the test with NCI-H226 lung, in the test on MDA-MB-231 breast, with HCT-15 colon and in the test on ACHN renal was above 100 µM throughout.

Turning to `CCOc1cc2c(cc1O)CC[C@@H]1[C@@H]2CC[C@]2(C)[C@@H](O)CC[C@@H]12`, the TGI in the test on 786-0 renal was found to be 47.1 µM; in the test with OVCAR-8 ovarian, 33.5 µM; in the test on SK-OV-3 ovarian, 77.3 µM; in the test with NCI-H522 lung, 0.0197 µM; with NCI-H460 lung, 23 µM; in the test with CAKI-1 renal, 52.9 µM. Further, the TGI worked out at 18.3 µM with BT-549 breast; 1.02 µM with SR leukemia; 20 µM in the test with A498 renal; 77.5 µM in the test on SK-MEL-28 melanoma; 17.4 µM in the test on HT29 colon; 9.15 µM with DU-145 prostate. Besides, the TGI in the test with MDA-MB-435 is 0.0761 µM; with NCI-H226 lung it was 3.95 µM; in the test with MDA-MB-231 breast it was 6.67 µM; in the test on SN12C renal it was 46.3 µM; in the test on HCT-15 colon, 27.2 µM; in the test on ACHN renal, above 96.1 µM.
